Holding throughout (test): cells
Design in all cases: species or system NCI-60 human tumour cell lines; NCI-60 one-dose screen at 10 uM, percent growth inhibition versus untreated control cells

In one assay the test system is MDA-MB-435. Conditions: Homo sapiens, MDA-MB-435; growth inhibition, one dose; read-out: Growth% inhibition / 5e.
In a further assay the test system is HOP-92. Conditions: Homo sapiens, HOP-92; growth inhibition, one dose; read-out: Growth% inhibition / 5e.
The test system of a further assay is NCI-H460. Conditions: Homo sapiens, NCI-H460; growth inhibition, one dose; read-out: Growth% inhibition / 5e.
A further assay deals with OVCAR-4. Conditions: Homo sapiens, OVCAR-4; growth inhibition, one dose; read-out: Growth% inhibition / 5e.
The subject of a further assay is M14. Conditions: Homo sapiens, M14; growth inhibition, one dose; read-out: Growth% inhibition / 5e.
A further assay deals with UACC-257. As to conditions: Homo sapiens, UACC-257; growth inhibition, one dose; read-out: Growth% inhibition / 5e.
A further assay deals with SW-620. As to conditions: Homo sapiens, SW-620; growth inhibition, one dose; read-out: Growth% inhibition / 5e.
The test system of a further assay is SR. Conditions: Homo sapiens, SR; growth inhibition, one dose; read-out: Growth% inhibition / 5e.
Another assay relates to ACHN. As to conditions: Homo sapiens, ACHN; growth inhibition, one dose; read-out: Growth% inhibition / 5e.
In a further assay the test system is OVCAR-8. Conditions: Homo sapiens, OVCAR-8; growth inhibition, one dose; read-out: Growth% inhibition / 5e.
The test system of a further assay is NCI/ADR-RES. Conditions: Homo sapiens, NCI/ADR-RES; growth inhibition, one dose; read-out: Growth% inhibition / 5e.
The test system of a further assay is RPMI-8226. Conditions: Homo sapiens, RPMI-8226; growth inhibition, one dose; read-out: Growth% inhibition / 5e.
The test system of another assay is UACC-62. Conditions: Homo sapiens, UACC-62; growth inhibition, one dose; read-out: Growth% inhibition / 5e.
Another assay relates to SK-MEL-2. Conditions: Homo sapiens, SK-MEL-2; growth inhibition, one dose; read-out: Growth% inhibition / 5e.
The subject of a further assay is KM12. As to conditions: Homo sapiens, KM12; growth inhibition, one dose; read-out: Growth% inhibition / 5e.
Another assay has as its system BT-549. As to conditions: Homo sapiens, BT-549; growth inhibition, one dose; read-out: Growth% inhibition / 5e.
The next assay concerns U251. Conditions: Homo sapiens, U-251; growth inhibition, one dose; read-out: Growth% inhibition / 5e.
For another assay, the system named is IGROV1. Conditions: Homo sapiens, IGROV-1; growth inhibition, one dose; read-out: Growth% inhibition / 5e.

Molecules are shown by their SMILES.

With `CCN(CC)c1ccc(/C=N/NC(=O)/C=C/C=C/c2ccc3c(c2)OCO3)c(O)c1` [5e, (2E,4E)-5-(Benzo[d][1,3]dioxol-5-yl)-N′-((E)-4-(diethylamino)-2-hydroxybenzylidene)penta-2,4-dienehydrazide], the inhibition at 10 µM was found to be 51.1% with MDA-MB-435; 51.6% in the assay with HOP-92; 80.2% in the assay on NCI-H460; 84.7% with OVCAR-4; 63.6% in the assay with M14; 75.8% in the assay on UACC-257. Also, the inhibition at 10 µM is 67.7% in the assay on SW-620; 82.4% in the assay with SR; 74.4% with ACHN; 67.1% in the assay with OVCAR-8; 82.5% in the assay on NCI/ADR-RES; 46.4% in the assay on RPMI-8226. The inhibition at 10 µM in the assay with UACC-62 was determined as 70.9%; in the assay with SK-MEL-2, 34.3%; with KM12 it was 69.8%; in the assay on BT-549, 48.2%; with U251 it was 56.8%; with IGROV1 it was 61.8%.

These data come from paper PMC9037111, “Structure-based design, synthesis, and biological evaluation of novel piperine–resveratrol hybrids as antiproliferative agents targeting SIRT-2” (RSC Advances, 2021).
